Usually solubility stands for how much of the substance goes into solution per volume.

The data set can be described thus: Solubility comparison in toluene at room temperature. It is filed as physicochemical. The following applies: about 50 mg of solid dissolved.
Take `CC1=Cc2c(ccc3ccccc23)[C]12[Si](C)(C)[C]1(C(C)=Cc3c1ccc1ccccc31)[Zr]2([Cl])[Cl]` (stereo not shown) [dimethylsilanediylbis(2-methyl-4,5-benzoindenyl)zirconium dichloride]: the solubility result is “about 0.36 mmol/l”.
In the case of `CC1=Cc2c(ccc3ccccc23)[C]12[Si](C)(C)[C]1(C(C)=Cc3c1ccc1ccccc31)[Zr]2([Cl])[O]c1ccc(C(C)(C)C)cc1C(C)(C)C` (stereo not shown) [compound 1, Dimethylsilanediylbis(2-methyl-4,5-benzoindenyl)zirconium monochloride mono(2,4-di-tert-butylphenoxide)] it was more than 13 mM; in that of “Dimethylsilanediylbis(2-methylindenyl)zirconium monochloride mono(2,4-di-tert-butylphenoxide) [compound 2]”, more than 15 mM; in that of `Cc1cc2ccccc2[c-]1[Si](C)(C)[c-]1c(C)cc2ccccc21.[Cl-].[Cl-].[Zr+4]` (stereo not shown) [dimethylsilanediylbis(2-methylindenyl)zirconium dichloride], “about 2.1 mmol/l”.

For the origin of these results see US7053160B1, “Metallocene monohalogenides” (Basell Polyolefine GmbH, priority 1998, dated 2006).
